Counter-ions that a name gives are not always drawn.
Tests used:
Type in all cases: biochemical
[1] = target: T1, AXL (Homo sapiens, UniProt P30530); experiment: TR-FRET kinase activity assay, AXL; settings: ATP at Km, 60 minutes
T1 sequence (P30530 26-894): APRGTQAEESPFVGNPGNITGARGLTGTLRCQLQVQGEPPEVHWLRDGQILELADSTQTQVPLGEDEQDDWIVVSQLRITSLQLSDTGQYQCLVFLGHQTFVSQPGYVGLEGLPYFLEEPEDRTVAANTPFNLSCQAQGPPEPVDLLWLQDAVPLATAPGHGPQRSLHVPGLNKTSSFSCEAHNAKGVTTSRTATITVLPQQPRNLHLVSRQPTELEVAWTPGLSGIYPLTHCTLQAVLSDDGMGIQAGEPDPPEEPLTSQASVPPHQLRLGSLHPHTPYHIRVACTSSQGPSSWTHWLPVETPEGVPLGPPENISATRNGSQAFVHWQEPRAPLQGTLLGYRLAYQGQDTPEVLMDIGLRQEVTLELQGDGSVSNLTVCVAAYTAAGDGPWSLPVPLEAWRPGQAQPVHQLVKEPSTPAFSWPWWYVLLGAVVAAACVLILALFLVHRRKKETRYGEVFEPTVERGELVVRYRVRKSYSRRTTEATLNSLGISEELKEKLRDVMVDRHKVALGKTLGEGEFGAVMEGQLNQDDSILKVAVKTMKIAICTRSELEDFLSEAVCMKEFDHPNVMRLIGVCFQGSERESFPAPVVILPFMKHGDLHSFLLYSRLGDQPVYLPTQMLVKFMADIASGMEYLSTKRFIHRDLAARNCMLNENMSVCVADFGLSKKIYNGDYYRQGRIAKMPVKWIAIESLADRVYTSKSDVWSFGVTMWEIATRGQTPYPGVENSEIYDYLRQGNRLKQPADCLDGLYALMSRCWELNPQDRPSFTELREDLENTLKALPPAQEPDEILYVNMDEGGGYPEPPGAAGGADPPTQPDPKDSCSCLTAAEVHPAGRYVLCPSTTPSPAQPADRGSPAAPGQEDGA
Experimental: (§1) IC50 values for compound inhibition of AXL, FLT3, MERTK and TYRO3 activity were determined by using a TR-FRET activity assay. A polypeptide substrate with a fluorescent label is phosphorylated on a tyrosine by each enzyme, where the now phosphorylated product is bound by a Europium-labeled antibody specific to that phosphorylation site. The proximity between the antibody and the substrate gives a signal known as TR-FRET. As the enzyme is inhibited by compound, less phosphorylated peptide product is made causing a decrease in overall signal.
(§2) Activity assays were performed in a 384-well, small volume, black microplates in an active enzyme volume of 10 μL and final developed volume of 20 μL. Final assay conditions are 50 mM HEPES pH 7.5, 10 mM MgCl2, 1 mM EGTA, 0.01% Brij 35 and 1 mM DTT all at RT. Enzyme, substrate labeled peptide and compound are mixed, and then the reaction is initiated with the addition of ATP at Km concentration for each enzyme. The reaction is allowed to run 60 minutes and then quenched with a 12.5 mM EDTA (ethylenediamine tetraacetic acid) solution. The plate is then developed with the addition of Europium labeled antibody for a final volume of 20 μL and is then incubated for 30 minutes in darkness. Plates are read in a Pherastar plate reader. Data is analyzed in GraphPad PRISM.
(§3) The results of these assays are shown in Table 1, below, wherein “No.” designates compound number (FIG. 1); “A” represents a value of ≤100 nM; “B” a value of >100 nM and ≤1 μM; “C” a value of >1 μM and ≤10 μM; “D” a value of >10 μM; “ND” is not determined. The ratio of Mer to FLT3 is calculated as follows: FLT3 IC50/Mer IC50. “+” represents a ratio of >2.0 and <10; “++” represents a ratio of between 10 and 100; and “+++” represents a ratio of >100.

[2] = target: T2, FLT3 (Homo sapiens, UniProt P36888); experiment: TR-FRET kinase activity assay, FLT3; settings: ATP at Km, 60 minutes
T2 sequence (P36888 27-993): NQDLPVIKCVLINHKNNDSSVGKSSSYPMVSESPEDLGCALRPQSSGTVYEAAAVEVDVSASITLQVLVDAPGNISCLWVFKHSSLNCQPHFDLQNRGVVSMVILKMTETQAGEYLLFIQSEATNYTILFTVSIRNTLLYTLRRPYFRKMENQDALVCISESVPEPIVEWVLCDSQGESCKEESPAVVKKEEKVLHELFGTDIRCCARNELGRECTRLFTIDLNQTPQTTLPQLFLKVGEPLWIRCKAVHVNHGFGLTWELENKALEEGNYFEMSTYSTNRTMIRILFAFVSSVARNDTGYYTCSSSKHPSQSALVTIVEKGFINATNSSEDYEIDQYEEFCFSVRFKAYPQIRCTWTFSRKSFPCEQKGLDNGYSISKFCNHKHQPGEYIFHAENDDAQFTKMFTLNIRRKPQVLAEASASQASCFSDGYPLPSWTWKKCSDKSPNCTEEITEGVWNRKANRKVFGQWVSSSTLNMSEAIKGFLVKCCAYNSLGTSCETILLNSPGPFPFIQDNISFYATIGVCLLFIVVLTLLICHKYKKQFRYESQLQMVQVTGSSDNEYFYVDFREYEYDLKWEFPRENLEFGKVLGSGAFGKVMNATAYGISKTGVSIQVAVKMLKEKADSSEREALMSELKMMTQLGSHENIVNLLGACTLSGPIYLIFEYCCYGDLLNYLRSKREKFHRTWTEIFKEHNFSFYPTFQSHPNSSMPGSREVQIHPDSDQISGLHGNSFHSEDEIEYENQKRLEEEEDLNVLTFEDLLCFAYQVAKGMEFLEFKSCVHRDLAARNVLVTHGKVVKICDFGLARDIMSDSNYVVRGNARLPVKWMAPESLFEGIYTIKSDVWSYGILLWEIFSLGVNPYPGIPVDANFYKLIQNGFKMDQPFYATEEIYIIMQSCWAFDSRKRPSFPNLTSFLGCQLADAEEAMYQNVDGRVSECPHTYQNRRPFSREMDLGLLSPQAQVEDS
Experimental: as §1, §2, §3

[3] = target: T3, MERTK (Homo sapiens, UniProt Q12866); experiment: TR-FRET kinase activity assay, MERTK; settings: for IC50: TR-FRET activity assay, ATP at Km, 60 minutes, read-out: Mer IC50; for FLT3/Mer ratio (FLT3 IC50/Mer IC50): ratio of Mer to FLT3: FLT3 IC50/Mer IC50
T3 sequence (Q12866 21-999): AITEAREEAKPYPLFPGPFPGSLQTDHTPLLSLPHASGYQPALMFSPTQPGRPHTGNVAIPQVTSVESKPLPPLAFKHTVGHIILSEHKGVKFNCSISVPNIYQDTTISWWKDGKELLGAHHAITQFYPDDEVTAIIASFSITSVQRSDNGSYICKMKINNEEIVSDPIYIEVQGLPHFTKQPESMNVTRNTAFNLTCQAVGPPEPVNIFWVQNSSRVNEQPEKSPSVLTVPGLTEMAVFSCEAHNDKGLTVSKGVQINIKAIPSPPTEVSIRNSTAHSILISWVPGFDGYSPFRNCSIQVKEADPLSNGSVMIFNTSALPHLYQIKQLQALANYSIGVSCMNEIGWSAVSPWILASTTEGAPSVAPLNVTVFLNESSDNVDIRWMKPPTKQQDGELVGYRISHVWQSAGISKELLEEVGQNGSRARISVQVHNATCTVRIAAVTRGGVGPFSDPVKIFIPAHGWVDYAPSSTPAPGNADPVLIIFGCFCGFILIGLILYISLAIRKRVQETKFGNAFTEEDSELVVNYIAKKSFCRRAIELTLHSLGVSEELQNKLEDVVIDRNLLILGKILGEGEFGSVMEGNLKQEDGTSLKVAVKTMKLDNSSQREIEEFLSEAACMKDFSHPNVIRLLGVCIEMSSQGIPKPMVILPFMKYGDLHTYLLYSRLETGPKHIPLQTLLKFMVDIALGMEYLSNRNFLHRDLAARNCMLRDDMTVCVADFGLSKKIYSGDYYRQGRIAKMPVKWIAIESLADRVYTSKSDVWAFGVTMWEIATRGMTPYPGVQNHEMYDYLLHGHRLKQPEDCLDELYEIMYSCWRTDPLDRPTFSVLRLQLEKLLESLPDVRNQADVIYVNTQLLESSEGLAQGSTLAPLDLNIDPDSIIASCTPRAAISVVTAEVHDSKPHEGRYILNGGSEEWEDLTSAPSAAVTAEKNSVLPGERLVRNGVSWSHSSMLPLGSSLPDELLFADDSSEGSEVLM
Experimental: as §1, §2, §3

| IC50 [1] [µM] | IC50 [2] [µM] | IC50 [3] [µM] | SMILES | FLT3/Mer ratio (FLT3 IC50/Mer IC50) [3] |
| --- | --- | --- | --- | --- |
| ≤ 0.1 | ≤ 0.1 | ≤ 0.1 | CCCCNc1ncc2c(-c3ccc(S(=O)(=O)N4CCOCC4)cc3)cc([C@H]3CC[C@H](O)CC3)n2n1 [Compound 101] | + (“+” represents a ratio of >2.0 and <10) |
| > 10 | > 10 | 0.1 to 1 | CCCCCC(C)Nc1ncc2c(Nc3ccc(F)cc3)cc(C3CCC(O)CC3)n2n1 [Compound 106, (1S,4r)-4-(5-((4-fluorophenyl)amino)-2-((S)-heptan-2-ylamino)pyrrolo[2,1-f][1,2,4]triazin-7-yl)cyclohexanol hydrochloride] | ++ (“++” represents a ratio of between 10 and 100) |
| > 10 | 1 to 10 | 1 to 10 | CCCCC[C@H](C)Nc1ncc2c(C(=O)Nc3ccc(F)cc3)cc(C3CCC(O)CC3)n2n1 (stereo partly drawn) [Compound 111, N-(4-fluorophenyl)-7-(4-hydroxycyclohexyl)-2-[[(1S)-1-methylhexyl]amino]pyrrolo[2,1-f][1,2,4]triazine-5-carboxamide] | + (“+” represents a ratio of >2.0 and <10) |
|  | 0.1 to 1 | ≤ 0.1 | COC[C@H](C)Nc1ncc2c(-c3cnn(C[C@@H]4CC(=O)N(C)C4)c3)cc([C@H]3CC[C@H](O)CC3)n2n1 [Compound 476] |  |

— patent US11040981B2, “Pyrrolotriazine compounds and methods of inhibiting TAM kinases” (Syros Pharmaceuticals, Inc., priority 2017, dated 2021)
